From PubChem BioAssay AID1919004 (Molecular Pharmacology Branch, DTP, NCI, 2023)

Tested on: 883617-216-R-J1-PDC complex spheroids, growth, % test/control
Test: Anticancer human tumor 883617-216-R-J1-PDC patient-derived bladder carcinoma cell line growth inhibition [AhR]
Details: for IC50: curve of first compound; for viability, T/C: stronger effect = lower value
Text: Multicellular complex tumor spheroid response to aryl hydrocarbon receptor antagonists in combination with a variety of drugs and investigational agents in selected tumor cell lines
The current study was undertaken to assess response to aryl hydrocarbon receptor antagonists in combination with standard-of-care drugs and investigational agents in solid tumor complex spheroid models. Complex spheroids include a stromal component modeled by human endothelial cells (HUVEC) and fibroblasts modeled by human mesenchymal stem cells (MSCs). The concentration ranges selected for each drug and investigational agent were based upon clinically achievable concentrations if the clinical Cmax of the agent was known.
Compounds. The drugs and investigational agents: BAY 2416964 (NSC825713), GNF351 (NSC835774), CH-223191 (NSC835775), CPI-455 (NSC825282), aza-TdCyd (NSC777586), decitabine (NSC127716), belinostat (NSC758774), entinostat (NSC756642), pevonedistat (NSC761192), tazemetostat (NSC777109), talazoparib (NSC765396), olaparib (NSC753686), selinexor (NSC780203), nedisertib (M3814, NSC802822), bortezomib (NSC756655), venetoclax (NSC766270), doxorubicin (NSC123127), elimusertib (BAY189344, NSC800525), ceralasertib (AZD6738, NSC777638), TAK-243 (NSC785004), alisertib (NSC759677), etoposide (NSC141540), topotecan (NSC609699), eribulin (NSC707389), gemcitabine (NSC613327), carboplatin (NSC241240), cisplatin (NSC119875), and SN-38 (NSC673596) were obtained from the National Cancer Institute (NCI) Developmental Therapeutics Program Chemical Repository (32). The FDA-approved anticancer drug set is available from the Developmental Therapeutics Program at https://dtp.cancer.gov/organization/dscb/obtaining/available plates.htm. […] The stock solutions were prepared in dimethyl sulfoxide (DMSO, Sigma-Aldrich, St. Louis, MO, cat. D2650), except for the platinum compounds which were prepared in saline (Quality Biological, Gaithersburg, MD, cat. 114-055-101), at 800-fold the tested concentration and stored at -70 degrees C prior to their use. All drugs and investigational agents were tested over a range starting from a high concentration at or near the clinical Cmax and decreasing in half-log increments. If the clinical Cmax for an agent had not been determined, the highest concentration tested was 10 microM (Table 1).
Cell Culture. All cells were maintained in an incubator at 37 degrees C and 5% CO2 with 95% humidity. The PDC lines were cultured according to standard operating procedures established by the NCI PDMR (https://pdmr.cancer.gov). Briefly, all PDCs were thawed and cultured in Matrigel-coated flasks prepared with a working solution of 1X Ham's F-12 nutrient mix, without supplementation (Invitrogen, Waltham, MA, cat. 11765054), 100 U/mL penicillin-streptomycin (Invitrogen, cat. 15140122), and 2.5% Matrigel (Corning Inc., Corning, NY, cat. 354248) for the first three passages. All PDCs were cultured in complete DMEM/F-12 media containing advanced DMEM/F-12 (Invitrogen, cat. 12634028), 4.9% defined fetal bovine serum, heat inactivated (HyClone Laboratories Inc., Logan, UT, cat. SH30070.03HI), 389 ng/mL hydrocortisone (Sigma-Aldrich, cat. H4001), 9.7 ng/mL human EGF recombinant protein (Invitrogen, cat. PHG0313), 23.4 microg/mL adenine (Sigma-Aldrich, cat. A2786), 97.3 U/mL penicillin-streptomycin (Invitrogen, cat. 15140122), 1.9 mM L-glutamine (Invitrogen, cat. 25030081), and 9.7 microM Y-27632 dihydrochloride (Tocris Bioscience, Bristol, United Kingdom, cat. 1254). The PDCs were cultured in complete DMEM/F12 media without 10 microM Y-27632 dihydrochloride for at least two passages prior to the screen. The established cell lines NCI-H1341 and […] were cultured in DMEM/F-12, HEPES (Invitrogen, cat. 11330032), 5% defined fetal bovine serum (HyClone Laboratories Inc., cat. SH30070.03), ITS premix universal culture supplement [insulin (5 microg/mL), transferrin (5 microg/mL), and selenious acid (5 ng/mL)] […]

[1] = second compound 0.1 µM, first compound 0.0316 µM
[2] = second compound 0.1 µM, first compound 0.1 µM
[3] = second compound 0.1 µM, first compound 0.316 µM
[4] = second compound 0.1 µM, first compound 1 µM
[5] = second compound 0.1 µM, first compound 3.16 µM
[6] = second compound 0.1 µM, first compound 10 µM
[7] = second compound 0.316 µM, first compound 0.0316 µM
[8] = second compound 0.316 µM, first compound 0.1 µM
[9] = second compound 0.316 µM, first compound 0.316 µM
[10] = second compound 0.316 µM, first compound 1 µM
[11] = second compound 0.316 µM, first compound 3.16 µM
[12] = second compound 0.316 µM, first compound 10 µM
[13] = second compound 1 µM, first compound 0.0316 µM
[14] = second compound 1 µM, first compound 0.1 µM
[15] = second compound 1 µM, first compound 0.316 µM
[16] = second compound 1 µM, first compound 1 µM
[17] = second compound 1 µM, first compound 3.16 µM
[18] = second compound 1 µM, first compound 10 µM
[19] = second compound 3.16 µM, first compound 0.0316 µM
[20] = second compound 3.16 µM, first compound 0.1 µM
[21] = second compound 3.16 µM, first compound 0.316 µM
[22] = second compound 3.16 µM, first compound 1 µM
[23] = second compound 3.16 µM, first compound 3.16 µM
[24] = second compound 3.16 µM, first compound 10 µM
[25] = second compound 10 µM, first compound 0.0316 µM
[26] = second compound 10 µM, first compound 0.1 µM
[27] = second compound 10 µM, first compound 0.316 µM
[28] = second compound 10 µM, first compound 1 µM
[29] = second compound 10 µM, first compound 3.16 µM
[30] = second compound 10 µM, first compound 10 µM
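Further: exposure lasted 7 days after dosing on day 3 of spheroid growth.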

With `CCc1c2c(nc3ccc(O)cc13)-c1cc3c(c(=O)n1C2)COC(=O)[C@]3(O)CC` + CC(CO)NC(=O)c1cc(-c2ccc(Cl)cc2)nn(-c2cnn(C)c2)c1=O the IC50 (second compound 0.1 µM) was over 0.3 µM, the IC50 (second compound 0.316 µM) was over 0.3 µM and the IC50 (second compound 1 µM) was over 0.3 µM. The IC50 (second compound 3.16 µM) was over 0.3 µM, the IC50 (second compound 10 µM) was 0.3 µM and the viability, T/C (second compound 0.1 µM, first compound 0.000949 µM) was 50.4%. The viability, T/C (second compound 0.1 µM, first compound 0.003 µM) was 64.7%, the viability, T/C (second compound 0.1 µM, first compound 0.00949 µM) was 66.9% and the viability, T/C (second compound 0.1 µM, first compound 0.03 µM) was 39.6%. The viability, T/C (second compound 0.1 µM, first compound 0.0949 µM) was 85.5%, the viability, T/C (second compound 0.1 µM, first compound 0.3 µM) was 86% and the viability, T/C (second compound 0.316 µM, first compound 0.000949 µM) was 68.2%. It also gave a viability, T/C (second compound 0.316 µM, first compound 0.003 µM) of 63.3%, a viability, T/C (second compound 0.316 µM, first compound 0.00949 µM) of 87.4% and a viability, T/C (second compound 0.316 µM, first compound 0.03 µM) of 47.8%. It also gave a viability, T/C (second compound 0.316 µM, first compound 0.0949 µM) of 69.9%, a viability, T/C (second compound 0.316 µM, first compound 0.3 µM) of 80.7% and a viability, T/C (second compound 1 µM, first compound 0.000949 µM) of 83.1%. It also gave a viability, T/C (second compound 1 µM, first compound 0.003 µM) of 88.2%, a viability, T/C (second compound 1 µM, first compound 0.00949 µM) of 145% and a viability, T/C (second compound 1 µM, first compound 0.03 µM) of 64.1%. For the same molecule, the viability, T/C (second compound 1 µM, first compound 0.0949 µM) was 89.4%, the viability, T/C (second compound 1 µM, first compound 0.3 µM) was 63.9% and the viability, T/C (second compound 3.16 µM, first compound 0.000949 µM) was 110%. It also gave a viability, T/C (second compound 3.16 µM, first compound 0.003 µM) of 63.3%, a viability, T/C (second compound 3.16 µM, first compound 0.00949 µM) of 40.5% and a viability, T/C (second compound 3.16 µM, first compound 0.03 µM) of 77.9%. For the same molecule, the viability, T/C (second compound 3.16 µM, first compound 0.0949 µM) was 92.7%, the viability, T/C (second compound 3.16 µM, first compound 0.3 µM) was 73.8% and the viability, T/C (second compound 10 µM, first compound 0.000949 µM) was 73.2%. It also gave a viability, T/C (second compound 10 µM, first compound 0.003 µM) of 61.7%, a viability, T/C (second compound 10 µM, first compound 0.00949 µM) of 103% and a viability, T/C (second compound 10 µM, first compound 0.03 µM) of 87.3%. It also gave a viability, T/C (second compound 10 µM, first compound 0.0949 µM) of 43.6% and a viability, T/C (second compound 10 µM, first compound 0.3 µM) of 57.4%.
Work on `Nc1ccn(C2OC(CO)C(O)C2(F)F)c(=O)n1` (stereo not given) + CC(CO)NC(=O)c1cc(-c2ccc(Cl)cc2)nn(-c2cnn(C)c2)c1=O yielded an IC50 (second compound 0.1 µM) of over 10 µM, an IC50 (second compound 0.316 µM) of over 10 µM and an IC50 (second compound 1 µM) of over 10 µM. It also gave an IC50 (second compound 3.16 µM) of over 10 µM, an IC50 (second compound 10 µM) of over 10 µM and a viability, T/C [1] of 82.9%. It also gave a viability, T/C [2] of 91.6%, a viability, T/C [3] of 95.4% and a viability, T/C [4] of 88.3%. For the same molecule, the viability, T/C [5] was 58.7%, the viability, T/C [6] was 85.3% and the viability, T/C [7] was 82.2%. It also gave a viability, T/C [8] of 99%, a viability, T/C [9] of 97.8% and a viability, T/C [10] of 84.8%. The viability, T/C [11] was 85.8%, the viability, T/C [12] was 86.3% and the viability, T/C [13] was 96.8%. For the same molecule, the viability, T/C [14] was 76.4%, the viability, T/C [15] was 113% and the viability, T/C [16] was 77.7%. The viability, T/C [17] was 75.7%, the viability, T/C [18] was 72.1% and the viability, T/C [19] was 81%. It also gave a viability, T/C [20] of 91.8%, a viability, T/C [21] of 108% and a viability, T/C [22] of 52.7%. It also gave a viability, T/C [23] of 63.4%, a viability, T/C [24] of 63.5% and a viability, T/C [25] of 63.2%. The viability, T/C [26] was 124%, the viability, T/C [27] was 87% and the viability, T/C [28] was 72.7%. The viability, T/C [29] was 78.2% and the viability, T/C [30] was 76.6%.
`O=C(c1cc(Cc2n[nH]c(=O)c3ccccc23)ccc1F)N1CCN(C(=O)C2CC2)CC1` + CC(CO)NC(=O)c1cc(-c2ccc(Cl)cc2)nn(-c2cnn(C)c2)c1=O gave an IC50 (second compound 0.1 µM) of over 10 µM, an IC50 (second compound 0.316 µM) of over 10 µM and an IC50 (second compound 1 µM) of over 10 µM. It also gave an IC50 (second compound 3.16 µM) of over 10 µM, an IC50 (second compound 10 µM) of over 10 µM and a viability, T/C [1] of 107%. For the same molecule, the viability, T/C [2] was 109%, the viability, T/C [3] was 78.8% and the viability, T/C [4] was 124%. The viability, T/C [5] was 118%, the viability, T/C [6] was 80.2% and the viability, T/C [7] was 80%. It also gave a viability, T/C [8] of 114%, a viability, T/C [9] of 115% and a viability, T/C [10] of 92.3%. It also gave a viability, T/C [11] of 72.4%, a viability, T/C [12] of 87.1% and a viability, T/C [13] of 122%. For the same molecule, the viability, T/C [14] was 124%, the viability, T/C [15] was 111% and the viability, T/C [16] was 104%. For the same molecule, the viability, T/C [17] was 137%, the viability, T/C [18] was 97% and the viability, T/C [19] was 120%. For the same molecule, the viability, T/C [20] was 88.5%, the viability, T/C [21] was 85.5% and the viability, T/C [22] was 105%. The viability, T/C [23] was 119%, the viability, T/C [24] was 82.3% and the viability, T/C [25] was 126%. The viability, T/C [26] was 84.7%, the viability, T/C [27] was 128% and the viability, T/C [28] was 98.9%. The viability, T/C [29] was 64.2% and the viability, T/C [30] was 104%.
